The values that follow come from patent US20240018158A1, “BRM TARGETING COMPOUNDS AND ASSOCIATED METHODS OF USE” (Prelude Therapeutics Incorporated, priority 2020, published 2024).

This assay concerns the target SMARCA2 (Homo sapiens (Human), UniProt P51531). Briefly: SMARCA2 HiBiT degradation assay in HEK293T cells. The format is cell-based. Particulars: 293T HiBiT assay, 24 h; for DC50: read-out: DC50 (SM2-293T) SMARCA2 degradation potency; for Dmax: HEK-293T, read-out: Dmax % (SM2-293T) maximum SMARCA2 degradation within the concentrations tested. The protocol:
HiBiT peptide knock-in of SMARCA2 in LgBiT expressing HEK293T cells was performed by CRISPR-mediated tagging system as described Promega. The homozygous HiBiT knock-in on c-terminus SMARCA2 was confirmed by sanger sequence. SMARCA2-HiBiT knock-in Hela monoclonal cell (CS302366) and SMARCA4-HiBiT knock-in Hela monoclonal cell (CS3023226) were purchased from Promega. The heterozygous HiBiT-knock-in was confirmed by sanger sequence in both SMARCA2-HiBiT and SMARCA4-HiBiT monoclonal cells. Compounds were prepared in a low dead volume plate at 3-fold serial dilution, and then transferred 25 nL/well into a 384 well plate (Corning: #356661) by Agilent Bravo liquid dispenser. SMARCA2-HiBiT monoclonal HEK293T cells were added at 5,000/well/25 uL into the compound containing 384 well plate. After 24 h incubation, 25 uL/well of Nano-Glo HiBiT Lytic detection buffer (Promega: N3050) was added to the wells and incubate for 10 min on a shaker, centrifuged for 5 min, and then RLU was detected on a microplate reader (Envision, PerkinElmer). The RLU ratio values are normalized to percent inhibition as follows: % inhibition=((HC−LC)−(compound−LC))/(HC−LC))*100, where HC=high control=mean signal of DMSO only; LC=low control=mean signal of 100% inhibition of RLU by 1 μM PRT1001728. An 11-point dose response curve for each compound will be generated using normalized % inhibition to determine IC50 values based on the equation: Y=Bottom+((Top-Bottom)/(1+((IC50/X)^Slope))), where Y is the % inhibition in the presence of X inhibitor concentration; Top=the top plateau of the curve; Bottom=the bottom plateau of the curve; Slope=Hill coefficient; DC50=concentration of compound with 50% degradation in relation to top/high control. DC50 values were determined by using XLfit Model 205.

Where only a bound is given, the exact number is not on record here.

Chain of SMARCA2 (P51531 whole entry): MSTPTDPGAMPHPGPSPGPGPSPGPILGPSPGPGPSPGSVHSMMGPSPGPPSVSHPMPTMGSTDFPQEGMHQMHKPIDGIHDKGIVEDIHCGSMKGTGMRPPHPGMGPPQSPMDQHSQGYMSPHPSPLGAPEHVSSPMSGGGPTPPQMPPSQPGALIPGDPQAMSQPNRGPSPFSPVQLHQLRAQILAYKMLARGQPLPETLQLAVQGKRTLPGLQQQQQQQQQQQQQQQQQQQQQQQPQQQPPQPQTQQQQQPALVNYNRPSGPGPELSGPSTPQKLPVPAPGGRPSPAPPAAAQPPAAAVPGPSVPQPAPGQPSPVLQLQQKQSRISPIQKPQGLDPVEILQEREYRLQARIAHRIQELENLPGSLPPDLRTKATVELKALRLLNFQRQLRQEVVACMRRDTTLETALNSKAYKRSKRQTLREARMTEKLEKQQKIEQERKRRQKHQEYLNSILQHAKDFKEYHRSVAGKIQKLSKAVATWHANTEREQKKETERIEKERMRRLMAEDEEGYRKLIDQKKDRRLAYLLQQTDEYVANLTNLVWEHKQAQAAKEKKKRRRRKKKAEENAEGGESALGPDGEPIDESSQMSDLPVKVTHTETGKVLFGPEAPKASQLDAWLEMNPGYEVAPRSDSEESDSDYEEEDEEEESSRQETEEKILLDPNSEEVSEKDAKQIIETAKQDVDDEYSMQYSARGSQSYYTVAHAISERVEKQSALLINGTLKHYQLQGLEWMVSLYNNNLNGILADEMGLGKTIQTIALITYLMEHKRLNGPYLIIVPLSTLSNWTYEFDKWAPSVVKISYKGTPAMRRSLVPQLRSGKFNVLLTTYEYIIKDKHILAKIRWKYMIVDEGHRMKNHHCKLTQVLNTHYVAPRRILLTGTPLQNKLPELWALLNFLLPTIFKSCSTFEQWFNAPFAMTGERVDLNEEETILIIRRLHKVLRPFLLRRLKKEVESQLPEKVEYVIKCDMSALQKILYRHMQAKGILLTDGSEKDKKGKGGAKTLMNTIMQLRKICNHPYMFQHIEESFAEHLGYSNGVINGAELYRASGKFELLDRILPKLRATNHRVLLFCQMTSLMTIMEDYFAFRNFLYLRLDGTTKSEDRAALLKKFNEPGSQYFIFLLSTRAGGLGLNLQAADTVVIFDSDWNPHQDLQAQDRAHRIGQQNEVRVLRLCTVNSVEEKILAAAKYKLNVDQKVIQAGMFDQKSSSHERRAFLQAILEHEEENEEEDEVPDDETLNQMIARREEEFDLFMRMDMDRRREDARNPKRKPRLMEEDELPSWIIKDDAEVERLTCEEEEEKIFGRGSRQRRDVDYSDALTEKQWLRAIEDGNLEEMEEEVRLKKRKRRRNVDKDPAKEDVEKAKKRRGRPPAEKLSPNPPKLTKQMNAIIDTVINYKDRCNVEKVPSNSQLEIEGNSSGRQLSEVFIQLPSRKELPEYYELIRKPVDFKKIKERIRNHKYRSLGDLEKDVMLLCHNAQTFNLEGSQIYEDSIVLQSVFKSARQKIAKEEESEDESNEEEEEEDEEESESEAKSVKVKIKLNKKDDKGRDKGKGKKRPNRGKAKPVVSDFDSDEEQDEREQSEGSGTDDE

Take `Cc1ncsc1-c1ccc([C@H](C)NC(=O)[C@@H]2C[C@@H](O)CN2C(=O)[C@@H](c2cc(OCCN3CCC(N4CCN5c6cc(-c7ccccc7O)nnc6NC[C@H]5C4)C3)no2)C(C)C)cc1` (single isomer, unassigned) [Example 18]: the DC50 was less than 100 nM. `Cc1ncsc1-c1ccc([C@H](C)NC(=O)[C@@H]2C[C@@H](O)CN2C(=O)[C@@H](c2cc(OCCN3CCC(N4CCN5c6cc(-c7ccccc7O)nnc6NC[C@H]5C4)C3)no2)C(C)C)cc1` (single isomer, unassigned) [Example 19]: the 50% degradation concentration (DC50) is less than 100 nM and the Dmax was greater than 75%.

For `Cc1ncsc1-c1ccc([C@H](C)NC(=O)[C@@H]2C[C@@H](O)CN2C(=O)[C@@H](c2cc(OCC(=O)N3CCC(N4CCN5c6cc(-c7ccccc7O)nnc6NC[C@H]5C4)C(C)C3)no2)C(C)C)cc1` (single isomer, unassigned) [Example 31], the DC50 was less than 100 nM and the Dmax is greater than 75%. Take `Cc1ncsc1-c1ccc([C@H](C)NC(=O)[C@@H]2C[C@@H](O)CN2C(=O)[C@@H](c2cc(OCCN3CCC(N4CCN5c6cc(-c7ccccc7O)nnc6NC[C@H]5C4)C(C)C3)no2)C(C)C)cc1` (single isomer, unassigned) [Example 56]: the DC50 is less than 100 nM and the Dmax is greater than 75%. As for `Cc1ncsc1-c1ccc([C@H](C)NC(=O)[C@@H]2C[C@@H](O)CN2C(=O)[C@@H](c2cc(OCCN3CCCC(CN4CCN5c6cc(-c7ccccc7O)nnc6NC[C@H]5C4)C3)no2)C(C)C)cc1` (single isomer, unassigned) [Example 85], the half-maximal degradation concentration (DC50) was less than 100 nM and the Dmax is greater than 75%. Regarding `Cc1ncsc1-c1ccc([C@H](C)NC(=O)[C@@H]2C[C@@H](O)CN2C(=O)[C@@H](c2cc(CCCN3CCCC(CN4CCN5c6cc(-c7ccccc7O)nnc6NC[C@H]5C4)C3)no2)C(C)C)cc1` (single isomer, unassigned) [Example 88], the 50% degradation concentration (DC50) was less than 100 nM and the Dmax is greater than 75%. Take `Cc1ncsc1-c1ccc([C@H](C)NC(=O)[C@@H]2C[C@@H](O)CN2C(=O)[C@@H](c2cc(CCCN3CCCC(CN4CCN5c6cc(-c7ccccc7O)nnc6NC[C@H]5C4)C3)no2)C(C)C)cc1` (single isomer, unassigned) [Example 89]: the half-maximal degradation concentration (DC50) is less than 100 nM. `Cc1ncsc1-c1ccc([C@H](C)NC(=O)[C@@H]2C[C@@H](O)CN2C(=O)[C@H](NC(=O)OCCN2CCN3c4cc(-c5ccccc5O)nnc4NCC3C2)C(C)(C)C)cc1` (stereo partly drawn) [Example 7, 2-(2-(2-hydroxyphenyl)-5,6,6a,7,9,10-hexahydro-8H-pyrazino[1′,2′:4,5]pyrazino[2,3-c]pyridazin-8-yl)ethyl ((R)-1-((2S,4R)-4-hydroxy-2-(((S)-1-(4-(4-methylthiazol-5-yl)phenyl)ethyl)carbamoyl)pyrrolidin-1-yl)-3,3-dimethyl-1-oxobutan-2-yl)carbamate]: the DC50 was 100 to 1000 nM and the Dmax was greater than 75%. Consider `Cc1ncsc1-c1ccc([C@H](C)NC(=O)[C@@H]2C[C@@H](O)CN2C(=O)[C@@H](NC(=O)CCN2CCC(CN3CCN4c5cc(-c6ccccc6O)nnc5NCC4C3)CC2)C(C)(C)C)cc1` (stereo partly drawn) [Example 8, (2S,4R)-4-hydroxy-1-((2S)-2-(3-(4-((2-(2-hydroxyphenyl)-5,6,6a,7,9,10-hexahydro-8H-pyrazino[1′,2′:4,5]pyrazino[2,3-c]pyridazin-8-yl)methyl)piperidin-1-yl)propanamido)-3,3-dimethylbutanoyl)-N-((S)-1-(4-(4-methylthiazol-5-yl)phenyl)ethyl)pyrrolidine-2-carboxamide], for which the 50% degradation concentration (DC50) is 100 to 1000 nM and the Dmax is greater than 75%.

As to `CC(=O)O[C@@H]1C[C@@H](C(=O)N[C@@H](C)c2ccc(-c3scnc3C)cc2)N(C(=O)[C@@H](c2cc(OCCN3CCN4c5cc(-c6ccccc6O)nnc5NCC4C3)no2)C(C)C)C1` (stereo partly drawn) [Example 9, (3R,5S)-1-((2R)-2-(3-(2-(2-(2-hydroxyphenyl)-5,6,6a,7,9,10-hexahydro-8H-pyrazino[1′,2′:4,5]pyrazino[2,3-c]pyridazin-8-yl)ethoxy)isoxazol-5-yl)-3-methylbutanoyl)-5-(((S)-1-(4-(4-methylthiazol-5-yl)phenyl)ethyl)carbamoyl)pyrrolidin-3-yl acetate], the DC50 was less than 100 nM and the Dmax is greater than 75%. The corresponding values for `Cc1ncsc1-c1ccc([C@H](C)NC(=O)[C@@H]2C[C@@H](OC(=O)C(C)C)CN2C(=O)[C@@H](c2cc(OCCN3CCN4c5cc(-c6ccccc6O)nnc5NC[C@H]4C3)no2)C(C)C)cc1` [Example 10, (3R,5S)-1-((R)-2-(3-(2-((S)-2-(2-hydroxyphenyl)-5,6,6a,7,9,10-hexahydro-8H-pyrazino[1′,2′:4,5]pyrazino[2,3-c]pyridazin-8-yl)ethoxy)isoxazol-5-yl)-3-methylbutanoyl)-5-(((S)-1-(4-(4-methylthiazol-5-yl)phenyl)ethyl)carbamoyl)pyrrolidin-3-yl isobutyrate] are less than 100 nM and greater than 75%. The corresponding values for `Cc1ncsc1-c1ccc([C@H](C)NC(=O)[C@@H]2C[C@@H](O)CN2C(=O)[C@@H](NC(=O)CN2CCC(N3CCN4c5cc(-c6ccccc6O)nnc5NC[C@H]4C3)CC2)C(C)(C)C)cc1` [Example 11, (2S,4R)-4-hydroxy-1-((S)-2-(2-(4-((S)-2-(2-hydroxyphenyl)-5,6,6a,7,9,10-hexahydro-8H-pyrazino[1′,2′:4,5]pyrazino[2,3-c]pyridazin-8-yl)piperidin-1-yl)acetamido)-3,3-dimethylbutanoyl)-N-((S)-1-(4-(4-methylthiazol-5-yl)phenyl)ethyl)pyrrolidine-2-carboxamide] are less than 100 nM and greater than 75%. The matching figures for `Cc1ncsc1-c1ccc([C@H](C)NC(=O)[C@@H]2C[C@@H](O)CN2C(=O)[C@@H](c2cc(OCCN3CC4CC(C3)C4N3CCN4c5cc(-c6ccccc6O)nnc5NCC4C3)no2)C(C)C)cc1` (stereo partly drawn) [Example 12, (2S,4R)-4-hydroxy-1-((2R)-2-(3-(2-(6-(2-(2-hydroxyphenyl)-5,6,6a,7,9,10-hexahydro-8H-pyrazino[1′,2′:4,5]pyrazino[2,3-c]pyridazin-8-yl)-3-azabicyclo[3.1.1]heptan-3-yl)ethoxy)isoxazol-5-yl)-3-methylbutanoyl)-N-((S)-1-(4-(4-methylthiazol-5-yl)phenyl)ethyl)pyrrolidine-2-carboxamide]: 100 to 1000 nM and greater than 75%.

Consider `Cc1ncsc1-c1ccc([C@H](C)NC(=O)[C@@H]2C[C@@H](O)CN2C(=O)[C@@H](c2cc(OCCN3CC4(CC(N5CCN6c7cc(-c8ccccc8O)nnc7NCC6C5)C4)C3)no2)C(C)C)cc1` (stereo partly drawn) [Example 13, (2S,4R)-4-hydroxy-1-((2R)-2-(3-(2-(6-(2-(2-hydroxyphenyl)-5,6,6a,7,9,10-hexahydro-8H-pyrazino[1′,2′:4,5]pyrazino[2,3-c]pyridazin-8-yl)-2-azaspiro[3.3]heptan-2-yl)ethoxy)isoxazol-5-yl)-3-methylbutanoyl)-N-((S)-1-(4-(4-methylthiazol-5-yl)phenyl)ethyl)pyrrolidine-2-carboxamide], for which the DC50 is less than 100 nM and the Dmax is greater than 75%. The corresponding values for `Cc1ncsc1-c1ccc([C@H](C)NC(=O)[C@@H]2C[C@@H](O)CN2C(=O)[C@@H](c2cc(OCCN3CCC(N4CCN5c6cc(-c7ccccc7O)nnc6NC[C@H]5C4)C(F)C3)no2)C(C)C)cc1` (stereo partly drawn) [Example 14, (2S,4R)-1-((2R)-2-(3-(2-(3-fluoro-4-((S)-2-(2-hydroxyphenyl)-5,6,6a,7,9,10-hexahydro-8H-pyrazino[1′,2′:4,5]pyrazino[2,3-c]pyridazin-8-yl)piperidin-1-yl)ethoxy)isoxazol-5-yl)-3-methylbutanoyl)-4-hydroxy-N-((S)-1-(4-(4-methylthiazol-5-yl)phenyl)ethyl)pyrrolidine-2-carboxamide] are less than 100 nM and greater than 75%. The corresponding values for `Cc1ncsc1-c1ccc([C@H](C)NC(=O)[C@@H]2C[C@@H](O)CN2C(=O)[C@@H](c2cc(OCCN3CCC(CN4CCN5c6cc(-c7ccccc7O)nnc6NC[C@H]5C4)C3)no2)C(C)C)cc1` (stereo partly drawn) [Example 15, (2S,4R)-4-hydroxy-1-((2R)-2-(3-(2-(3-(((S)-2-(2-hydroxyphenyl)-5,6,6a,7,9,10-hexahydro-8H-pyrazino[1′,2′:4,5]pyrazino[2,3-c]pyridazin-8-yl)methyl)pyrrolidin-1-yl)ethoxy)isoxazol-5-yl)-3-methylbutanoyl)-N-((S)-1-(4-(4-methylthiazol-5-yl)phenyl)ethyl)pyrrolidine-2-carboxamide] are less than 100 nM and greater than 75%.
